From patent US20250354096A1, “IN VITRO DEVICE FOR VASCULARIZED MICROFLUIDIC MODELING OF OSTEOCHONDRAL UNIT” (CFD Research Corporation, priority 2024, published 2025)

Columns and labels:
[1] = test system: tri-culture of hMSC derived chondrocytes, hMSC derived osteoblasts and HUVEC; experiment: Inflammatory assay: oxidative stress (CellROX Orange ROS) in tri-culture OC device; assay type: cell-based, human; settings: 100 ng/mL LPS perfused into channel 3, no RAP; 4 hours without flow; versus control; n=3; FIG. 8
Method: In the tri-culture device, OA-like cues were supplied to observe i) oxidative stress induced by LPS conditioning, and ii) the reduction of the oxidative stress in the simultaneous presence of LPS and the anti-inflammatory drug Rapamycin (RAP). Thus, three conditions were investigated: no insult (control,-LPS-RAP), insult (+LPS−RAP), and insult plus treatment (+LPS+RAP). For the insult, the medium was exchanged in established devices with 100 ng/mL LPS perfused into channel 3 to maximize inflammation across the device by supplying LPS in the closest proximity to both bone and vasculature. […]
Resultant oxidative stress was measured by image processing after four hours by the CellROX™ Orange Reactive Oxygen Species Detection Kit (Thermo Fisher), a fluorometric reactive oxygen species (ROS) assay, according to the manufacture's protocol. […] The same microscope was used to capture images for each experiment and exposure and other microscope settings were kept constant to allow quantitative comparisons between micrographs. Quantitative measurement of relative ROS was conducted by image analysis via ImageJ and Matlab®. Briefly, for each condition (i.e., i)-LPS-RAP; ii)+LPS-RAP; iii)+LPS+RAP) images were split into three regions of interest (ROIs), representing the three channel of the devices (vasculature, bone, cartilage), that were separately analyzed. […]

[2] = test system: MMPs (catabolic genes related to OA) in bone and cartilage channels; experiment: qPCR of MMP changes in OC device after defined inflammatory cytokines and drug candidate; assay type: cell-based, human; settings: combination of defined inflammatory cytokines for 24 hours, then Tyrphostin-9; versus no treatment and cytokine alone; FIGS. 11A-11F
From the text: The qPCR data from extracted cells was obtained from the cells that can be individually extracted on a per-channel basis so that tissues can be analyzed separately. […] Statistical significance determined by Kruskal-Wallis non-parametric test followed by Dunn's post hoc. * p<0.05, ** p<0.01, and *** p<0.001. FIGS. 10A, 10C, and 10E show bone. FIGS. 10B, 10D, and 10F show cartilage.
FIGS. 11A-11F include data that show the MMP changes in response to the combination of defined cytokines and a drug candidate. Devices were exposed to a combination of defined inflammatory cytokines for 24 hours. After 24 hours, the devices were exposed to either fresh medium without cytokines, or to Tyrphostin-9 (TY9), a candidate compound with potential anti-inflammatory effects under consideration as a palliative for osteoarthritis (OA). […] Thus, the device can be used to screen for drugs to treat OA.

Compound | oxidative stress of the cells (relative ROS, normalized image intensity) [1] | MMP changes (fold change) / inflammatory condition [2]
lipopolysaccharide [LPS] | increases the oxidative stress of the cells in all the compartment | –
CC(C)(C)c1cc(C=C(C#N)C#N)cc(C(C)(C)C)c1O [Tyrphostin-9] | – | inflammatory condition is improved
